In ChEMBL document CHEMBL4665685, “Neuroprotective Effects of Triterpenoids from Camellia japonica against Amyloid β-Induced Neuronal Damage” (J Nat Prod, 2020):
Activity calls are given as the source filed them. The rule behind the calls is not given here.

How the values were obtained:
HT-22 [1] = experiment: Neuroprotective activity against amyloid beta (1 to 42 residues)-induced cell death in mouse HT22 cells assessed as increase in cell viability at 20 uM after 24 hrs by MTT assay (reference value: 51.2%); format: functional
HT-22 [2] = experiment: Neuroprotective activity against amyloid beta (1 to 42) transfected mouse HT-22 cells assessed as protection against amyloid-induced inflammation at 40 uM after 24 hrs by MTT assay; format: functional, cell-based
HT-22 [3] = experiment: Neuroprotective activity against in amyloid beta (1 to 42) transfected mouse HT22 cells assessed as reduction in overexpression of the green fluorescent pEGFP-C1 gene at 40 uM after 24 hrs by reporter gene assay; format: functional, cell-based
BV-2 [4] = experiment: Cytotoxicity against mouse BV2 cells assessed as reduction in cell viability at 40 uM after 18 hrs by MTT assay; format: cell-based; settings: bv-2, 18 h
BV-2 [5] = experiment: Anti-neuroinflammatory activity in mouse BV-2 cells assessed as reduction in amyloid beta (1 to 42 residues)-induced nitric oxide at 40 uM after 18 hrs; format: functional, cell-based
HT-22 [6] = experiment: Neuroprotective activity against glutamate-induced cell death in mouse HT22 cells assessed as increase in cell viability at 40 uM preincubated for 6 hrs followed by glutamate-challenge and measured after 16 hrs by MTT assay relative to control; format: functional
[7] = target: Beta-secretase 1 (Homo sapiens) (UniProt P56817); experiment: Inhibition of BACE1 (unknown origin) at 20 uM measured after 60 mins by FRET assay relative to control
Sequence of Beta-secretase 1 (Homo sapiens) (P56817 whole entry): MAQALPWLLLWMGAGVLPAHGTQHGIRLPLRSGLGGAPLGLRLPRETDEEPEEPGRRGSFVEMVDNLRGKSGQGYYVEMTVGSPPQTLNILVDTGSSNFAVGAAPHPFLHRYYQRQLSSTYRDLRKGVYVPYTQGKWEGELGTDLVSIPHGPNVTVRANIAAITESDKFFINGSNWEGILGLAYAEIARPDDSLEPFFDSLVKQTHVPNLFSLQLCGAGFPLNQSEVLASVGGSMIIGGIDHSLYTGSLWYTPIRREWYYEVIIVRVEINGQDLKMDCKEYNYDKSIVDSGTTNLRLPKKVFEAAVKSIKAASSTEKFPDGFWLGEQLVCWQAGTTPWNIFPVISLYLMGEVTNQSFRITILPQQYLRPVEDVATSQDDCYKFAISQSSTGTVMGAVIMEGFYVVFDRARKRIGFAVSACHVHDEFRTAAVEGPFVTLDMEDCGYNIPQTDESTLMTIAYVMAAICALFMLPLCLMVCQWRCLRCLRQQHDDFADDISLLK

[8] = target: Beta-secretase 1 (Homo sapiens) (UniProt P56817); experiment: Inhibition of BACE1 (unknown origin) at 10 uM measured after 60 mins by FRET assay
HT-22 [9] = experiment: Cytotoxicity against mouse HT-22 cells assessed as reduction in cell viability at 40 uM after 24 hrs by MTT assay; format: cell-based; settings: ht-22, 24 h
HT-22 [10] = experiment: Neuroprotective activity against amyloid beta (1 to 42) transfected mouse HT22-ARE cells assessed as reversal of increase in antioxidant response element-luciferase activity at 40 uM after 18 hrs by reporter gene assay; format: functional, cell-based
HT-22 [11] = experiment: Neuroprotective activity in mouse HT-22 cells assessed as reduction in amyloid beta (1 to 42 residues)-induced glutamate level at 40 uM after 24 hrs by fluorescence assay (reference value: 3.17); format: functional
HT-22 [12] = experiment: Neuroprotective activity against amyloid beta (1 to 42 residues)-induced cell death in mouse HT22 cells assessed as increase in cell viability at 5 uM after 24 hrs by MTT assay (reference value: 51.2%); format: functional
HT-22 [13] = experiment: Neuroprotective activity against amyloid beta (1 to 42 residues)-induced cell death in mouse HT22 cells assessed as increase in cell viability at 1 uM after 24 hrs by MTT assay (reference value: 51.2%); format: functional

For `COC(=O)CC[C@@]1(C)C(C(C)(C)O)C[C@H](O)[C@]2(C)[C@@H]1CC=C1[C@@H]3CC(C)(C)CC[C@]3(O)C(=O)C[C@]12C` (some centres undefined), the Activity (HT-22 [1]) was 68.9%.

With `CC1(C)CC[C@]2(O)C(=O)C[C@]3(C)C(=C[C@@H](O)[C@@H]4[C@@]5(C)[C@H](O)CC(=O)C(C)(C)[C@@H]5CC[C@]43C)[C@@H]2C1` the Activity (HT-22 [2]) was “Active”, the Activity (HT-22 [3]) was “Active” and the Activity (BV-2 [4]) was “Non-Toxic”. The Activity (BV-2 [5]) was “Active”, the Activity (HT-22 [6]) was 78.1% and the inhibition [7] was 51.1%. For the same compound, the inhibition [8] was “Active”, the Activity (HT-22 [9]) was “Non-Toxic” and the Activity (HT-22 [10]) was “Active”. The “fold change (FC)” value (HT-22 [11]) was 1.42.

With `C=C(C)[C@@H]1C[C@H](O)[C@]2(C)[C@H](CC=C3[C@@H]4C[C@](C)(CO)CC[C@]4(O)C(=O)C[C@]32C)[C@@]1(C)CCC(=O)OC` the Activity (BV-2 [4]) was “Non-Toxic” and the Activity (HT-22 [9]) was “Non-Toxic”.

`CC(C)(O)C1CC[C@]2(C)[C@H](CC=C3[C@@H]4C[C@](C)(CO)CC[C@]4(O)C(=O)C[C@]32C)[C@@]1(C)CCC(=O)O` (some centres undefined) was tested, and the Activity (HT-22 [1]) was 68.9%.

`CC1(C)CCC2C(=O)C[C@]3(C)C(=C2C1)C=C[C@@H]1[C@@]2(C)CC[C@H](O)C(C)(C)C2CC[C@]13C` (some centres undefined) gave an Activity (HT-22 [12]) of 68.9%.

`CC1(C)CC[C@]2(CO)[C@H](O)C[C@]3(C)C(=CC[C@@H]4[C@@]5(C)CC[C@H](O)C(C)(C)[C@@H]5CC[C@]43C)[C@@H]2C1` [PRIMULAGENIN] gave an Activity (HT-22 [13]) of 60.5%.

For `CC1(C)CC[C@]2(O)C(=O)C[C@]3(C)C(=CC[C@@H]4[C@@]5(C)CC[C@H](O[C@@H]6O[C@H](C(=O)O)[C@@H](O)[C@H](O)[C@H]6O)C(C)(C)[C@@H]5CC[C@]43C)[C@@H]2C1`, the Activity (HT-22 [12]) was 68.9%.

With `C=C(C)C1CC[C@]2(C)[C@H](CC=C3[C@@H]4C[C@](C)(CO)CC[C@]4(O)C(=O)C[C@]32C)[C@@]1(C)CCC(=O)O` (some centres undefined) the Activity (HT-22 [1]) was 68.9%.

With `CC1(C)CC[C@]2(O)C(=O)C[C@]3(C)C(=CC[C@@H]4[C@@]5(C)CC[C@H](O[C@@H]6O[C@H](CO)[C@@H](O)[C@H](O[C@@H]7O[C@H](CO)[C@@H](O)[C@H](O)[C@H]7O[C@@H]7O[C@H](CO)[C@@H](O)[C@H](O)[C@H]7O)[C@H]6O[C@H]6O[C@@H](CO)[C@H](O)[C@@H](O)[C@@H]6O)C(C)(C)[C@@H]5CC[C@]43C)[C@@H]2C1` the Activity (HT-22 [12]) was 68.9%.

Compound `CC1(C)CC[C@]2(O)C(=O)C[C@]3(C)C(=CC[C@@H]4[C@@]5(C)CC[C@H](O[C@@H]6O[C@H](C(=O)O)[C@@H](O)[C@H](O[C@@H]7O[C@H](CO)[C@@H](O)[C@H](O)[C@H]7O[C@@H]7O[C@H](CO)[C@@H](O)[C@H](O)[C@H]7O)[C@H]6O)C(C)(C)[C@@H]5CC[C@]43C)[C@@H]2C1` has an Activity (HT-22 [1]) of 68.9%.

`CC(=O)O[C@H]1CC[C@]2(C)[C@H]3CC=C4[C@@H]5CC(C)(C)CC[C@]5(C(=O)O)CC[C@@]4(C)[C@]3(C)CC[C@H]2C1(C)C` [ACETYL OLEANOLIC ACID] gave an Activity (HT-22 [13]) of 56.3%.

`CC(=O)O[C@H]1CC[C@]2(C)[C@H]3C=CC4=C5CC(C)(C)CC[C@]5(C(=O)O)CC[C@@]4(C)[C@]3(C)CC[C@H]2C1(C)C` gave an Activity (HT-22 [13]) of 68.9%.

`CO[C@@H]1C=C2[C@@H]3CC(C)(C)CC[C@]3(O)C(=O)C[C@@]2(C)[C@]2(C)CC[C@H]3C(C)(C)C(=O)C=C[C@]3(C)[C@@H]12` was tested, and the Activity (HT-22 [2]) was “Active”, the Activity (HT-22 [3]) was “Active” and the Activity (BV-2 [4]) was “Non-Toxic”. For the same compound, the Activity (BV-2 [5]) was “Active”, the Activity (HT-22 [6]) was 73.8% and the inhibition [7] was 61.3%. The inhibition [8] was “Active”, the Activity (HT-22 [9]) was “Non-Toxic” and the Activity (HT-22 [10]) was “Active”. For the same compound, the “fold change (FC)” value (HT-22 [11]) was 1.8.

For `CC(C)(O)C1C[C@H](O)[C@]2(C)[C@H](CC=C3[C@@H]4C[C@](C)(CO)CC[C@]4(O)C(=O)C[C@]32C)[C@@]1(C)CCC(=O)O` (some centres undefined), the Activity (HT-22 [1]) was 68.9%.

Compound `COC(=O)CC[C@@]1(C)C(C(C)(C)O)C[C@H](O)[C@]2(C)[C@@H]1CC=C1[C@@H]3C[C@](C)(CO)CC[C@]3(O)C(=O)C[C@]12C` (some centres undefined) has an Activity (HT-22 [1]) of 68.9%.

Work on `CC1(C)CC[C@]2(C(=O)O)C(=O)C[C@]3(C)C(=CC[C@@H]4[C@@]5(C)CC[C@H](O[C@@H]6O[C@H](C(=O)O)[C@@H](O)[C@H](O)[C@H]6O)C(C)(C)[C@@H]5CC[C@]43C)[C@@H]2C1` yielded an Activity (HT-22 [1]) of 72%.

For `CC1(C)CC[C@]2(O)[C@H](O)C[C@]3(C)C(=CC[C@@H]4[C@@]5(C)CC[C@H](O)C(C)(C)[C@@H]5CC[C@]43C)[C@@H]2C1`, the Activity (HT-22 [13]) was 61.9%.

In the case of `CO[C@@H]1C=C2[C@@H]3CC(C)(C)CC[C@]3(O)C(=O)C[C@@]2(C)[C@]2(C)CC[C@H]3C(C)(C)C(=O)C[C@@H](O)[C@]3(C)[C@@H]12`, the Activity (HT-22 [2]) is reported as “Active”, the Activity (HT-22 [3]) is reported as “Active” and the Activity (BV-2 [4]) is reported as “Non-Toxic”. The Activity (BV-2 [5]) was “Active”, the Activity (HT-22 [6]) was 77% and the inhibition [7] was 51.9%. For the same compound, the inhibition [8] was “Active”, the Activity (HT-22 [9]) was “Non-Toxic” and the Activity (HT-22 [10]) was “Active”. The “fold change (FC)” value (HT-22 [11]) was 1.61.

For `CCOC(=O)[C@H]1O[C@@H](O[C@H]2CC[C@]3(C)[C@H]4CC=C5[C@@H]6CC(C)(C)CC[C@]6(O)C(=O)C[C@@]5(C)[C@]4(C)CC[C@H]3C2(C)C)[C@H](O)[C@@H](O)[C@@H]1O`, the Activity (HT-22 [13]) was 68.9%.

With `CC1(C)CC[C@]2(O)C(=O)C[C@]3(C)C(=CC[C@@H]4[C@@]5(C)CCC(=O)C(C)(C)[C@@H]5CC[C@]43C)[C@@H]2C1` the Activity (HT-22 [1]) was 68.9%.

For `CC1(CO)CC[C@]2(O)C(=O)C[C@]3(C)C(=CC[C@@H]4[C@@]5(C)CCC(=O)C(C)(C)[C@@H]5CC[C@]43C)[C@@H]2C1` (some centres undefined), the Activity (HT-22 [2]) was “Active”, the Activity (HT-22 [3]) was “Active” and the Activity (BV-2 [4]) was “Non-Toxic”. The Activity (BV-2 [5]) was “Active”, the Activity (HT-22 [6]) was 81.2% and the inhibition [7] was 60.6%. The inhibition [8] was “Active”, the Activity (HT-22 [9]) was “Non-Toxic” and the Activity (HT-22 [10]) was “Active”. For the same compound, the “fold change (FC)” value (HT-22 [11]) was 1.81.

`COC(=O)CC[C@@]1(C)C(C(C)(C)O)CC[C@]2(C)[C@@H]1CC=C1[C@@H]3C[C@](C)(CO)CC[C@]3(O)C(=O)C[C@]12C` (some centres undefined) showed an Activity (HT-22 [1]) of 68.9%.

Work on `CC1(C)CC[C@]2(CO)C(=O)C[C@]3(C)C(=CC[C@@H]4[C@@]5(C)CC[C@H](O[C@@H]6O[C@H](C(=O)O)[C@@H](O)[C@H](O)[C@H]6O)C(C)(C)[C@@H]5CC[C@]43C)[C@@H]2C1` yielded an Activity (HT-22 [1]) of 55.5%.

`CC1(C)CC[C@]2(C(=O)O)CC[C@]3(C)C(=CC[C@@H]4[C@@]5(C)CC[C@H](O)C(C)(C)C5CC[C@]43C)[C@@H]2C1` (some centres undefined) gave an Activity (HT-22 [12]) of 58.6%.

Work on `CC1(C)CC[C@]2(O)C(=O)C[C@]3(C)C(=CC[C@@H]4[C@@]5(C)CC[C@H](O)C(C)(C)[C@@H]5CC[C@]43C)[C@@H]2C1` yielded an Activity (HT-22 [13]) of 68.9%.

With `CCCCOC(=O)CC[C@]1(C)[C@H]2CC=C3[C@@H]4C[C@](C)(CO)CC[C@]4(O)C(=O)C[C@@]3(C)[C@]2(C)[C@@H](O)C[C@H]1C(C)(C)O` the Activity (BV-2 [4]) was “Non-Toxic” and the Activity (HT-22 [9]) was “Non-Toxic”.

With `O=c1c(O)c(-c2ccc(O)c(O)c2)oc2cc(O)cc(O)c12` the inhibition [8] was “Active”.

Work on `CC1(C)CC[C@]2(O)C(=O)C[C@]3(C)C(=CC[C@@H]4[C@@]5(C)CC[C@H](O[C@@H]6O[C@H](C(=O)O)[C@@H](O)[C@H](O[C@@H]7O[C@H](CO)[C@@H](O)[C@H](O)[C@H]7O[C@@H]7O[C@H](CO)[C@@H](O)[C@H](O)[C@H]7O)[C@H]6O[C@H]6O[C@@H](CO)[C@H](O)[C@@H](O)[C@@H]6O)C(C)(C)[C@@H]5CC[C@]43C)[C@@H]2C1` yielded an Activity (HT-22 [12]) of 68.9%.

`CC(=O)O[C@H]1CC[C@@]2(C)C(CC[C@]3(C)[C@@H]2C(=O)C=C2[C@@H]4CC(C)(C)CC[C@]4(C)CC[C@]23C)C1(C)C` (some centres undefined) showed an Activity (HT-22 [12]) of 68.9%.

`COC(=O)CC[C@@]1(C)C(C(C)(C)O)CC[C@]2(C)[C@@H]1CC=C1[C@@H]3C[C@](C)(CO)CC[C@]3(CO)C(=O)C[C@]12C` (some centres undefined) showed an Activity (HT-22 [1]) of 68.9%.

Compound `CC1(C)CC[C@]2(C(=O)O)C(=O)C[C@]3(C)C(=CC[C@@H]4[C@@]5(C)CC[C@H](O[C@@H]6O[C@H](C(=O)O)[C@@H](O)[C@H](O[C@@H]7O[C@H](CO)[C@@H](O)[C@H](O)[C@H]7O[C@@H]7O[C@H](CO)[C@@H](O)[C@H](O)[C@H]7O)[C@H]6O[C@H]6O[C@@H](CO)[C@H](O)[C@@H](O)[C@@H]6O)C(C)(C)[C@@H]5CC[C@]43C)[C@@H]2C1` has an Activity (HT-22 [1]) of 61.7%.
